In PubChem BioAssay AID1259407 (Chemical Carcinogenesis Research Information System (CCRIS), 2018):
The source made the active and inactive calls. How the calls were made is not given here.

Tested on: CCRIS mutagenicity, Ames/micronucleus/aberration tests
Experiment: CCRIS mutagenicity studies
[1] = Test System: AMES SALMONELLA TYPHIMURIUM, Strain/Indicator: TA98, Metabolic Activation: NONE, Method: PREINCUBATION
[2] = Test System: AMES SALMONELLA TYPHIMURIUM, Strain/Indicator: TA98, Metabolic Activation: NONE, Method: STANDARD PLATE
[3] = Test System: AMES SALMONELLA TYPHIMURIUM, Strain/Indicator: TA98, Metabolic Activation: RAT, LIVER, S-9, AROCLOR 1254, Method: STANDARD PLATE
[4] = Test System: AMES SALMONELLA TYPHIMURIUM, Strain/Indicator: TA100, Metabolic Activation: NONE, Method: PREINCUBATION
[5] = Test System: AMES SALMONELLA TYPHIMURIUM, Strain/Indicator: TA100, Metabolic Activation: NONE, Method: STANDARD PLATE
[6] = Test System: AMES SALMONELLA TYPHIMURIUM, Strain/Indicator: TA100, Metabolic Activation: RAT, LIVER, S-9, AROCLOR 1254, Method: STANDARD PLATE
[7] = Test System: AMES SALMONELLA TYPHIMURIUM, Strain/Indicator: TA1535, Metabolic Activation: NONE, Method: STANDARD PLATE
[8] = Test System: AMES SALMONELLA TYPHIMURIUM, Strain/Indicator: TA1535, Metabolic Activation: RAT, LIVER, S-9, AROCLOR 1254, Method: STANDARD PLATE
[9] = Test System: AMES SALMONELLA TYPHIMURIUM, Strain/Indicator: TA1537, Metabolic Activation: NONE, Method: STANDARD PLATE
[10] = Test System: AMES SALMONELLA TYPHIMURIUM, Strain/Indicator: TA1537, Metabolic Activation: RAT, LIVER, S-9, AROCLOR 1254, Method: STANDARD PLATE

C=CCS(=O)(=O)CC=C
mutagenic call (End Point: In vivo micronucleus, Test System: Peripheral blood reticulocytes, Species: Mouse, Strain/Sex: F1 (Big Blue x A/J) transgenic/Male and female, Route: Oral): inactive; negative

N#CC(C#N)=Cc1ccc([N+](=O)[O-])o1
mutagenic call [1]: active; positive

Fc1c(F)c(F)c(Cl)c(F)c1F
mutagenic call [1]: inactive; negative
mutagenic call [2]: inactive; negative
mutagenic call (Test System: AMES SALMONELLA TYPHIMURIUM, Strain/Indicator: TA98, Metabolic Activation: RAT, LIVER, S-9, AROCLOR 1254, Method: PREINCUBATION): inactive; negative
mutagenic call [3]: inactive; negative
mutagenic call [4]: inactive; negative
mutagenic call [5]: inactive; negative
mutagenic call (Test System: AMES SALMONELLA TYPHIMURIUM, Strain/Indicator: TA100, Metabolic Activation: RAT, LIVER, S-9, AROCLOR 1254, Method: PREINCUBATION): inactive; negative
mutagenic call [6]: inactive; negative
mutagenic call (Test System: AMES SALMONELLA TYPHIMURIUM, Strain/Indicator: TA1535, Metabolic Activation: NONE, Method: PREINCUBATION): inactive; negative
mutagenic call [7]: inactive; negative
mutagenic call (Test System: AMES SALMONELLA TYPHIMURIUM, Strain/Indicator: TA1535, Metabolic Activation: RAT, LIVER, S-9, AROCLOR 1254, Method: PREINCUBATION): inactive; negative
mutagenic call [8]: inactive; negative
mutagenic call (Test System: AMES SALMONELLA TYPHIMURIUM, Strain/Indicator: TA1537, Metabolic Activation: NONE, Method: PREINCUBATION): inactive; negative
mutagenic call [9]: inactive; negative
mutagenic call (Test System: AMES SALMONELLA TYPHIMURIUM, Strain/Indicator: TA1537, Metabolic Activation: RAT, LIVER, S-9, AROCLOR 1254, Method: PREINCUBATION): inactive; negative
mutagenic call [10]: inactive; negative
mutagenic call (Test System: AMES SALMONELLA TYPHIMURIUM, Strain/Indicator: TA1538, Metabolic Activation: NONE, Method: PREINCUBATION): inactive; negative
mutagenic call (Test System: AMES SALMONELLA TYPHIMURIUM, Strain/Indicator: TA1538, Metabolic Activation: NONE, Method: STANDARD PLATE): inactive; negative
mutagenic call (Test System: AMES SALMONELLA TYPHIMURIUM, Strain/Indicator: TA1538, Metabolic Activation: RAT, LIVER, S-9, AROCLOR 1254, Method: PREINCUBATION): inactive; negative
mutagenic call (Test System: AMES SALMONELLA TYPHIMURIUM, Strain/Indicator: TA1538, Metabolic Activation: RAT, LIVER, S-9, AROCLOR 1254, Method: STANDARD PLATE): inactive; negative
mutagenic call (Test System: CHINESE HAMSTER OVARY, Strain/Indicator: CHO (HGPRT), Metabolic Activation: NONE): inactive; negative
mutagenic call (Test System: CHINESE HAMSTER OVARY, Strain/Indicator: CHO (HGPRT), Metabolic Activation: RAT, LIVER, S-9, AROCLOR 1254): inactive; negative
mutagenic call (Test System: CHINESE HAMSTER OVARY, Strain/Indicator: CHO-K1-BH4 (HGPRT)/6-THIOGUANINE, Metabolic Activation: NONE, Method: SUSPENSION/PLATE): inactive; negative
mutagenic call (Test System: CHINESE HAMSTER OVARY, Strain/Indicator: CHO-K1-BH4 (HGPRT)/6-THIOGUANINE, Metabolic Activation: RAT, LIVER, S-9, AROCLOR 1254, Method: SUSPENSION/PLATE): inactive; negative
mutagenic call (Test System: CHO/HGPRT, Strain/Indicator: CHO-K1-BH4, Metabolic Activation: NONE, Method: SUSPENSION/PLATE): inactive; negative
mutagenic call (Test System: CHO/HGPRT, Strain/Indicator: CHO-K1-BH4, Metabolic Activation: RAT, LIVER, S-9, AROCLOR 1254, Method: SUSPENSION/PLATE): inactive; negative
mutagenic call (Test System: UDS RAT PRIMARY HEPATOCYTES, Strain/Indicator: THY INCORP, Metabolic Activation: NONE, Method: IN VIVO-IN VITRO): inactive; negative
mutagenic call (Test System: UDS RODENT HEPATOCYTES, Strain/Indicator: THY INCORP (NON-S-PHASE), Metabolic Activation: NONE): inactive; negative

C[n+]1c2n(c(=O)c3ccccc31)CCc1c-2[nH]c2ccccc12
mutagenic call [2]: inactive; negative
mutagenic call (Test System: AMES SALMONELLA TYPHIMURIUM, Strain/Indicator: TA98, Metabolic Activation: RAT LIVER S-9, AROCLOR 1254 (10%), Method: STANDARD PLATE): inactive; negative
mutagenic call [5]: inactive; negative
mutagenic call (Test System: AMES SALMONELLA TYPHIMURIUM, Strain/Indicator: TA100, Metabolic Activation: RAT LIVER S-9, AROCLOR 1254 (10%), Method: STANDARD PLATE): inactive; negative
mutagenic call [7]: inactive; negative
mutagenic call (Test System: AMES SALMONELLA TYPHIMURIUM, Strain/Indicator: TA1535, Metabolic Activation: RAT LIVER S-9, AROCLOR 1254 (10%), Method: STANDARD PLATE): inactive; negative
mutagenic call [9]: inactive; negative
mutagenic call (Test System: AMES SALMONELLA TYPHIMURIUM, Strain/Indicator: TA1537, Metabolic Activation: RAT LIVER S-9, AROCLOR 1254 (10%), Method: STANDARD PLATE): inactive; negative

C=C(C)C1Cc2c(cc(O)c3c(=O)c4ccccc4n(C)c23)O1 (centres undefined)
mutagenic call [2]: inactive; negative
mutagenic call (Test System: AMES SALMONELLA TYPHIMURIUM, Strain/Indicator: TA98, Metabolic Activation: RAT, LIVER, S-9, 3-METHYLCHOLANTHRENE, Method: STANDARD PLATE): active; positive
mutagenic call (Test System: AMES SALMONELLA TYPHIMURIUM, Strain/Indicator: TA98, Metabolic Activation: RAT, LIVER, S-9, PHENOBARBITAL, Method: STANDARD PLATE): active; positive
mutagenic call (Test System: AMES SALMONELLA TYPHIMURIUM, Strain/Indicator: TA98, Metabolic Activation: RAT, LIVER, S-9, Method: STANDARD PLATE): active; positive
mutagenic call [5]: inactive; negative
mutagenic call (Test System: AMES SALMONELLA TYPHIMURIUM, Strain/Indicator: TA100, Metabolic Activation: RAT, LIVER, S-9, 3-METHYLCHOLANTHRENE, Method: STANDARD PLATE): active; positive
mutagenic call (Test System: AMES SALMONELLA TYPHIMURIUM, Strain/Indicator: TA100, Metabolic Activation: RAT, LIVER, S-9, PHENOBARBITAL, Method: STANDARD PLATE): active; positive
mutagenic call (Test System: AMES SALMONELLA TYPHIMURIUM, Strain/Indicator: TA100, Metabolic Activation: RAT, LIVER, S-9, Method: STANDARD PLATE): active; positive

CC(=O)OCc1cocc2c(C=O)ccc1-2
mutagenic call [2]: active; positive
mutagenic call [3]: active; positive
mutagenic call [5]: active; positive
mutagenic call [6]: active; positive
mutagenic call [7]: inactive; negative
mutagenic call [8]: inactive; negative
mutagenic call [9]: inactive; negative
mutagenic call [10]: inactive; negative

C=CCNC(N)=O
mutagenic call (Test System: AMES SALMONELLA TYPHIMURIUM, Strain/Indicator: TA98, Metabolic Activation: HAMSTER, LIVER, S-9, AROCLOR 1254 (30%), Method: PREINCUBATION): inactive; negative
mutagenic call [1]: inactive; negative
mutagenic call (Test System: AMES SALMONELLA TYPHIMURIUM, Strain/Indicator: TA100, Metabolic Activation: HAMSTER, LIVER, S-9, AROCLOR 1254 (5, 10 OR 30%), Method: PREINCUBATION): inactive; negative
mutagenic call [4]: inactive; negative
mutagenic call (Test System: AMES SALMONELLA TYPHIMURIUM, Strain/Indicator: TA100, Metabolic Activation: RAT, LIVER, S-9, AROCLOR 1254 (30%), Method: PREINCUBATION): inactive; negative
mutagenic call (Test System: AMES SALMONELLA TYPHIMURIUM, Strain/Indicator: TA1535, Metabolic Activation: HAMSTER, LIVER, S-9, AROCLOR 1254 (5 OR 10%), Method: PREINCUBATION): inactive; negative
mutagenic call (Test System: AMES SALMONELLA TYPHIMURIUM, Strain/Indicator: TA1535, Metabolic Activation: HAMSTER, LIVER, S-9, AROCLOR 1254 (30%), Method: PREINCUBATION): active; positive

CC(C)(C)ON=O
mutagenic call [4]: active; positive
mutagenic call (Test System: AMES SALMONELLA TYPHIMURIUM, Strain/Indicator: TA100, Metabolic Activation: RAT, LIVER, S-9, AROCLOR, Method: PREINCUBATION): inactive; negative
mutagenic call (Test System: AMES SALMONELLA TYPHIMURIUM, Strain/Indicator: TA102, Metabolic Activation: NONE, Method: PREINCUBATION): inactive; negative
